Assay [1] deals with recombinant human non-muscle myosin 2 NM2A (Homo sapiens, UniProt P35579). As to the kind of experiment: actomyosin steady state ATPase measurement, NM2A. Conditions: for inhibition at 5 µM: read-out: % inhibition at 5 μM (or 10 μM if racemate) NM2A, 5 μM (10 μM if racemate). Format: biochemical. An excerpt:
(§1) […]; (ii) the concentration required for semi-maximal inhibition.

Assay [2] has as its system isolated rabbit skeletal muscle myosin (skeletal). As to the kind of experiment: actomyosin steady state ATPase measurement, skeletal muscle myosin. Format: biochemical. Conditions: for % inhibition at 5 μM (or 10 μM if racemate) Skeletal: 5 μM (10 μM if racemate); for % inhibition at 5 μM (or 10 μM if racemate) Skeletal / % inhibition at 50 μM (or 100 μM if racemate) Skeletal: ATPase activity; for % inhibition at 50 μM (or 100 μM if racemate) Skeletal: 50 μM (100 μM if racemate); for IC50: concentration required for semi-maximal inhibition of ATPase; for % inhibition. complete Skeletal: maximum value of inhibition of ATPase activity.
Excerpt: as §1

Assay [3] deals with recombinant human non-muscle myosin 2 NM2C (Homo sapiens, UniProt Q7Z406). Put plainly: actomyosin steady state ATPase measurement, NM2C. Conditions: for IC50: concentration required for semi-maximal inhibition of ATPase; for % inhibition. complete NM2C: maximum value of inhibition of ATPase activity; for inhibition at 5 µM: read-out: % inhibition at 5 μM (or 10 μM if racemate) NM2C, 5 μM (10 μM if racemate); for inhibition at 5 µM / inhibition at 50 µM: ATPase activity; for inhibition at 50 µM: read-out: % inhibition at 50 μM (or 100 μM if racemate) NM2C, 50 μM (100 μM if racemate). Format: biochemical.
Excerpt: as §1

Assay [4] addresses isolated smooth muscle myosin (UniProt P10587). Format: biochemical, chamois. Conditions: concentration required for semi-maximal inhibition of ATPase. The text has this: (ii) the concentration required for semi-maximal inhibition.
For assay [5], the target named is recombinant Dictyostelium miozin (Dictyostelium) (Dictyostelium discoideum, UniProt P08799). As to the kind of experiment: actomyosin steady state ATPase measurement, Dictyostelium myosin. Conditions: for IC50: concentration required for semi-maximal inhibition of ATPase, read-out: IC50 (μM) Dicty; for % inhibition. complete Dicty: maximum value of inhibition of ATPase activity; for inhibition at 5 µM: read-out: % inhibition at 5 μM (or 10 μM if racemate) Dicty; for inhibition at 50 µM: read-out: % inhibition at 50 μM (or 100 μM if racemate) Dicty. Format: biochemical.
Excerpt: as §1

The target in assay [6] is isolated smooth muscle myosin (UniProt P10587). Format: biochemical, chamois. Conditions: for % inhibition at 5 μM (or 10 μM if racemate) Smooth: 5 μM (10 μM if racemate); for % inhibition at 5 μM (or 10 μM if racemate) Smooth / % inhibition at 50 μM (or 100 μM if racemate) Smooth: ATPase activity; for % inhibition at 50 μM (or 100 μM if racemate) Smooth: 50 μM (100 μM if racemate); for % inhibition. complete Smooth: maximum value of inhibition of ATPase activity.

Assay [7] has as its target T1, isolated porcine cardiac ventricular myocardium (cardiac) (Sus scrofa, UniProt P79293).
T1 construct: isolated porcine cardiac ventricular myocardium (cardiac); from tissue; host or cells: porcine cardiac ventricle
As to the kind of experiment: actomyosin steady state ATPase measurement, cardiac myosin. Format: biochemical. Conditions: for IC50: concentration required for semi-maximal inhibition of ATPase; for % inhibition. complete cardiac: maximum value of inhibition of ATPase activity; for inhibition at 5 µM: read-out: % inhibition at 5 μM (or 10 μM if racemate) cardiac, 5 μM (10 μM if racemate); for inhibition at 5 µM / inhibition at 50 µM: ATPase activity; for inhibition at 50 µM: read-out: % inhibition at 50 μM (or 100 μM if racemate) cardiac, 50 μM (100 μM if racemate).
Excerpt: as §1

recombinant Dictyostelium miozin (Dictyostelium), sequence (P08799 whole entry): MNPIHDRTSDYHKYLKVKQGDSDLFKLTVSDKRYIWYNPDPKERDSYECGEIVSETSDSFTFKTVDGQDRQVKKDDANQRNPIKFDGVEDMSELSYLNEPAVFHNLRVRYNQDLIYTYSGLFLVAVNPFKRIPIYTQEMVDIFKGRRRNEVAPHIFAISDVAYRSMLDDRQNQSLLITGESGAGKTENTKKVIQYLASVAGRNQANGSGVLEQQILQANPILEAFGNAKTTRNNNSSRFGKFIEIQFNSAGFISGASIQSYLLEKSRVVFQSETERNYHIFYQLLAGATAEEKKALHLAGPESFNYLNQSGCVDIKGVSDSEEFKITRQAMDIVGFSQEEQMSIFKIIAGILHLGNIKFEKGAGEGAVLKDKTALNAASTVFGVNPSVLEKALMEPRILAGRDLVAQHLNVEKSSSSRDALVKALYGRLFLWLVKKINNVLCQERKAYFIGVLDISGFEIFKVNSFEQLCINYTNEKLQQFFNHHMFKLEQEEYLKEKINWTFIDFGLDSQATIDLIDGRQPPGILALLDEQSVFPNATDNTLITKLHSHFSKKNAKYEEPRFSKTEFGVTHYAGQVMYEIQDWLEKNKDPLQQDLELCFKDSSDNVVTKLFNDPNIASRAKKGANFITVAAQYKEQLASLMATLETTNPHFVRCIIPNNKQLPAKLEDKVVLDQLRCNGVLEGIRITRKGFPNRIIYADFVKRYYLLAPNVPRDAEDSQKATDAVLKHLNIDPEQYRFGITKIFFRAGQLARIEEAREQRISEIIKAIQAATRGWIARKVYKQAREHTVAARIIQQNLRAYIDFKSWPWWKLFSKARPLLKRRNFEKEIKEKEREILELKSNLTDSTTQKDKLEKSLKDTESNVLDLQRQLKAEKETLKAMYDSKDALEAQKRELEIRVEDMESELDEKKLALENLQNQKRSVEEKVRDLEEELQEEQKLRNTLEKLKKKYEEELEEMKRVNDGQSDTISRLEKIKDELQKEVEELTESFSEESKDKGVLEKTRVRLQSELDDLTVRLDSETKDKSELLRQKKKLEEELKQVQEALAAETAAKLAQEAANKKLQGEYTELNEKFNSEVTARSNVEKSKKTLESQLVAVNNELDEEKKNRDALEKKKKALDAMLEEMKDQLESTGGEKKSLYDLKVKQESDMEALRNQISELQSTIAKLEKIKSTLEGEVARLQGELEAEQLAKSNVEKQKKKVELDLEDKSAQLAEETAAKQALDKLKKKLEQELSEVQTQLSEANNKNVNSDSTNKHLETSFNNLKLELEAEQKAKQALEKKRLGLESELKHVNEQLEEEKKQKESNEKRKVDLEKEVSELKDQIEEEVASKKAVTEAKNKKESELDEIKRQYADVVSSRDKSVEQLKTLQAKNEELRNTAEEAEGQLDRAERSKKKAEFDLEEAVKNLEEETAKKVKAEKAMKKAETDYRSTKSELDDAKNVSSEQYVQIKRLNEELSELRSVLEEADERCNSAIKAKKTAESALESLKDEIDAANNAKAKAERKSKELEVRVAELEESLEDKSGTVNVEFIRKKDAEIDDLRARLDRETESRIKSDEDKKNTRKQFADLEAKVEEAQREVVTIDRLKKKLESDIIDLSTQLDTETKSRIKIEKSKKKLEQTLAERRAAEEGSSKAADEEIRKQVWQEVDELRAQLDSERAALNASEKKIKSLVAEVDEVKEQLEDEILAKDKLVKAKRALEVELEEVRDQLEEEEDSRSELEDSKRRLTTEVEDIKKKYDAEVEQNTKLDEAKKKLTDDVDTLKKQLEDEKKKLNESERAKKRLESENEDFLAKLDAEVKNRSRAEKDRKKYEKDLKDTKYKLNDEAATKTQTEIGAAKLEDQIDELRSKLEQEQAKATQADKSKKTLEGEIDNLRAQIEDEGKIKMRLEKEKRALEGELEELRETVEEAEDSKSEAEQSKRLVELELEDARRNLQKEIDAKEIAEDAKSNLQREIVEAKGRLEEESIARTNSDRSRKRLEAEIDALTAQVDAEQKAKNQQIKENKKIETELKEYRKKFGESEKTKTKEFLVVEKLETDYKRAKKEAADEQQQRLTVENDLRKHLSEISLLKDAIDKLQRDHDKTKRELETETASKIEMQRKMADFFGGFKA
recombinant human non-muscle myosin 2 NM2A, sequence (P35579 whole entry): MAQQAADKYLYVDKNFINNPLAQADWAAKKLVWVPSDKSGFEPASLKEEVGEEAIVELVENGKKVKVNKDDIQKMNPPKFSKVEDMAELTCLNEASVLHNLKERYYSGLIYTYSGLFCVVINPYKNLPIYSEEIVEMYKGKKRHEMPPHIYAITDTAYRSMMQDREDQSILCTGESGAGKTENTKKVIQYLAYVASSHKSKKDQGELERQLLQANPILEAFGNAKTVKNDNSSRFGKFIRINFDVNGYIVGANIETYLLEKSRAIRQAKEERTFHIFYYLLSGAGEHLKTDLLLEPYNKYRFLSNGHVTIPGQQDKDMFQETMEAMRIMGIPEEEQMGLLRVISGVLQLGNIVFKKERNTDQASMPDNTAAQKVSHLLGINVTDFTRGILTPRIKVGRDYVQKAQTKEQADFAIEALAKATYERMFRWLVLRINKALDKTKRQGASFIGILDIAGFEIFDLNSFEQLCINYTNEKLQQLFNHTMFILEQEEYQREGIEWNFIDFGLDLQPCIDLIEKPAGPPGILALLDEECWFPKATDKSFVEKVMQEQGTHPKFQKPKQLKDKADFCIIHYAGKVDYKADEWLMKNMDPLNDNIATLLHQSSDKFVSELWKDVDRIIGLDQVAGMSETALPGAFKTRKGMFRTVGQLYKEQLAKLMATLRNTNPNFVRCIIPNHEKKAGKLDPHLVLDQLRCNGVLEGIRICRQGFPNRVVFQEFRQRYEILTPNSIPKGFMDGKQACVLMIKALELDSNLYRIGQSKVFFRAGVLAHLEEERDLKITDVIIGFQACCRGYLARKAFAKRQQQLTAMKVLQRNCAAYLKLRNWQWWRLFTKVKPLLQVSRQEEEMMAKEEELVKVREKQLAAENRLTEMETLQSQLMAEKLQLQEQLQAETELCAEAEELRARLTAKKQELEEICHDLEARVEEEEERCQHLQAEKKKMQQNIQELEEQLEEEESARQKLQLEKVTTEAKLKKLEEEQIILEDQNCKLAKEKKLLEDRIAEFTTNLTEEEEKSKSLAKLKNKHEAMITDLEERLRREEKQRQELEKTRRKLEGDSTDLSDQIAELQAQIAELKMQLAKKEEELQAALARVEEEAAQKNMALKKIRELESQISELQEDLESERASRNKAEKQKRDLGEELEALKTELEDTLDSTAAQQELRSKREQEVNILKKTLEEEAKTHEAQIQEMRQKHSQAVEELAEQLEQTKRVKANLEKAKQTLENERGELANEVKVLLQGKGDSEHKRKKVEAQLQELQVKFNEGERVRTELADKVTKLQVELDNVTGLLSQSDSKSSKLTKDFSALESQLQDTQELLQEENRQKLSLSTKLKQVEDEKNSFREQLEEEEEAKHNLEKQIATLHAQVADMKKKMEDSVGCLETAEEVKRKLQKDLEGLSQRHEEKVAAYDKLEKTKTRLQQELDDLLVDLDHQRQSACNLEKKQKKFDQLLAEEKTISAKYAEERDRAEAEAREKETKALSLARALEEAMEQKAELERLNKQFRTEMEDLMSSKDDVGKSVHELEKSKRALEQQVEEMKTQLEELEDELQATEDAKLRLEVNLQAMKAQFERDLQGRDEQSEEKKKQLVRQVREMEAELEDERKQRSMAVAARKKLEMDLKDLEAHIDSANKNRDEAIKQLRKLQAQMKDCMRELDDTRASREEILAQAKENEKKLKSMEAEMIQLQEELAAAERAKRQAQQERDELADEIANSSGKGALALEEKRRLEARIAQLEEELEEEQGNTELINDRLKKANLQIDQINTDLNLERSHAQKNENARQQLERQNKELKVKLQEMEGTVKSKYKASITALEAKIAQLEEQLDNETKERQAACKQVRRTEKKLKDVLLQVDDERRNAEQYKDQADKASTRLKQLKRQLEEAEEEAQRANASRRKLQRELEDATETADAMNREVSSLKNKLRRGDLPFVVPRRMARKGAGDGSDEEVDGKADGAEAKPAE

Take `Cc1cc2c(s1)N=C1N(c3cccs3)CC[C@@]1(O)C2=O` [Compound 208, (9S)-9-Hydroxy-5-methyl-12-(thiophen-2-yl)-4-thia-2,12-diazatricyclo[7.3.0.0^3,7]dodeca-1,3(7),5-trien-8-one]: the IC50 (in general, the concentration that inhibits the measured activity by half) in assay [1] (concentration required for semi-maximal inhibition of ATPase) was 7.2 µM. Also, the “Inhibition (%) NM2A” value in assay [1] (maximum inhibition, compounds in IC50 range 5-10 μM) is 89%. Also, the “% inhibition. complete NM2A” value in assay [1] (maximum value of inhibition of ATPase activity) worked out at 89%. Besides, the inhibition (as a rule, the change of the read-out against control, counted positive when it falls) at 5 µM in assay [1] (ATPase activity) is 37%. Also, the inhibition at 50 µM in assay [1] (read-out: % inhibition at 50 μM (or 100 μM if racemate) NM2A, 50 μM (100 μM if racemate), ATPase activity) was 78%. In addition, in assay [2], the % inhibition (commonly the share of the control response that was lost under treatment) at 5 μM (or 10 μM if racemate) Skeletal is on record as 87%, the “% inhibition at 50 μM (or 100 μM if racemate) Skeletal” value is recorded as 93%, the IC50 worked out at 0.36 µM and the “% inhibition. complete Skeletal” value was 95%. In assay [3], the 50% inhibitory concentration (IC50) was 1.7 µM, the “% inhibition. complete NM2C” value is 69%, the inhibition at 5 µM stood at 54% and the inhibition at 50 µM was determined as 65%. For the same compound, the midpoint of inhibition in assay [4], the IC50, lay at 7.8 µM. Further, in assay [5], the IC50 stood at 3.6 µM, the “% inhibition. complete Dicty” value is recorded as 95%, the inhibition at 5 µM stood at 55% and the inhibition at 50 µM stood at 89%. Also, in assay [5] (maximum inhibition, compounds in IC50 range 1-11 μM), the “Inhibition (%) Dicty” value is listed as 95%. Besides, in assay [6], the “% inhibition at 5 μM (or 10 μM if racemate) Smooth” value was found to be 26%, the “% inhibition at 50 μM (or 100 μM if racemate) Smooth” value is recorded as 60% and the “% inhibition. complete Smooth” value was found to be 66%.

As for `Cc1nsc2c1C(=O)C1(O)CCN(c3ccccc3)C1=N2` (centres unmarked) [Compound 206, 12-phenyl-9-Hydroxy-6-methyl-4-thia-2,5,12-triazatricyclo[7.3.0.0^3,7]dodeca-1,3(7),5-trien-8-one], the inhibition at 5 µM in assay [1] (ATPase activity) came out at 9%. In addition, in assay [2], the “% inhibition at 5 μM (or 10 μM if racemate) Skeletal” value turned out to be 26%, the “% inhibition at 50 μM (or 100 μM if racemate) Skeletal” value is on record as 78%, the IC50 was found to be 14 µM and the “% inhibition. complete Skeletal” value is reported as 100%. Moreover, half-maximal inhibition in assay [4] (IC50) was put at 9 µM. In addition, in assay [7], the midpoint of inhibition, the IC50, lay at 10 µM; the “% inhibition. complete cardiac” value stood at 47%; the inhibition at 5 µM turned out to be 16%; the inhibition at 50 µM stood at 39%. In assay [6], the “% inhibition at 5 μM (or 10 μM if racemate) Smooth” value was determined as 9%, the “% inhibition at 50 μM (or 100 μM if racemate) Smooth” value turned out to be 21% and the “% inhibition. complete Smooth” value worked out at 24%.

Turning to `O=C1c2ccsc2N=C2N(c3ccc(CO)cc3)CC[C@@]12O` [Compound 216, (9S)-9-Hydroxy-12-[4-(hydroxymethyl)phenyl]-4-thia-2,12-diazatricyclo[7.3.0.0^3,7]dodeca-1,3(7),5-trien-8-one], in assay [2], the “% inhibition at 5 μM (or 10 μM if racemate) Skeletal” value is given as 74%, the “% inhibition at 50 μM (or 100 μM if racemate) Skeletal” value stood at 95%, half-maximal inhibition (IC50) was put at 1.6 µM and the “% inhibition. complete Skeletal” value was determined as 98%. The “Inhibition (%) skeletal” value in assay [2] (maximum inhibition, compounds in IC50 range 1-2 μM) is 98%. Also, in assay [3], the 50% inhibitory concentration (IC50) was found to be 23 µM, the “% inhibition. complete NM2C” value came to 75%, the inhibition at 5 µM is 13% and the inhibition at 50 µM turned out to be 51%. In assay [4], this compound yielded a 50% inhibitory concentration (IC50) of 8.3 µM. Further, in assay [7], the IC50 amounted to 2.4 µM, the “% inhibition. complete cardiac” value was found to be 89%, the inhibition at 5 µM amounted to 58% and the inhibition at 50 µM was 85%. Also, in assay [5], the concentration for half-maximal inhibition (IC50) is 13.3 µM, the “% inhibition. complete Dicty” value is 74%, the inhibition at 5 µM turned out to be 20% and the inhibition at 50 µM is 58%. Also, in assay [6], the “% inhibition at 5 μM (or 10 μM if racemate) Smooth” value turned out to be 17%, the “% inhibition at 50 μM (or 100 μM if racemate) Smooth” value was found to be 39% and the “% inhibition. complete Smooth” value worked out at 46%.
